{"source": "ChEMBL document CHEMBL3044779", "about": "“The action of herbicides on fatty acid biosynthesis and elongation in barley and cucumber” (Pest Manag Sci, 2010)", "key": {"[1]": {"system": "Cucumis sativus", "assay": "Inhibition of fatty acid synthesis in Cucumis sativus (cucumber) using [14C]acetate assessed as [14C]-labeled 16C fatty acid level at 300 uM after 3 hr by liquid scintillation counting (reference value: 27.6 +/- 5.1%)", "type": "functional", "set-up": "scale not given: the % may be the effect or the level left"}, "[2]": {"system": "Hordeum vulgare", "assay": "Inhibition of fatty acid synthesis in Hordeum vulgare (barley) using [14C]malonate assessed as [14C]-labeled 22C fatty acid level at 300 uM after 3 hr by liquid scintillation counting (reference value: 32.8 +/- 2.3%)", "type": "functional", "set-up": "scale not given: the % may be the effect or the level left"}, "[3]": {"system": "Cucumis sativus", "assay": "(§1) Inhibition of fatty acid synthesis in Cucumis sativus (cucumber) assessed as inhibition of [14C]acetate incoporation in total fatty acids at 300 uM measured as total disintegration per g of fresh weight after 3 hr by liquid scintillation counting (reference value: 4.4 +/- 1 dpm x 10^6 g'1 fresh wt)", "type": "functional"}, "[4]": {"system": "Hordeum vulgare", "assay": "Inhibition of fatty acid synthesis in Hordeum vulgare (barley) using [14C]acetate assessed as reduction in [14C]-labeled 24C fatty acid level at 300 uM after 3 hr by liquid scintillation counting", "type": "functional, organism-based"}, "[5]": {"system": "Cucumis sativus", "assay": "Inhibition of fatty acid synthesis in Cucumis sativus (cucumber) using [14C]malonate assessed as [14C]-labeled 20C fatty acid level at 300 uM after 3 hr by liquid scintillation counting (reference value: 11.7 +/- 2%)", "type": "functional", "set-up": "scale not given: the % may be the effect or the level left"}, "[6]": {"system": "Hordeum vulgare", "assay": "Inhibition of fatty acid synthesis in Hordeum vulgare (barley) assessed as inhibition of [14C]acetate incoporation in total fatty acids at 300 uM measured as total disintegration per g of fresh weight after 3 hr by liquid scintillation counting (reference value: 5.8 +/- 1.6 dpm x 10^6 g'1 fresh wt)", "type": "functional"}, "[7]": {"system": "Hordeum vulgare", "assay": "Inhibition of fatty acid synthesis in Hordeum vulgare (barley) using [14C]acetate assessed as [14C]-labeled 16C fatty acid level at 300 uM after 3 hr by liquid scintillation counting (reference value: 30.6 +/- 0.2%)", "type": "functional", "set-up": "scale not given: the % may be the effect or the level left"}, "[8]": {"system": "Cucumis sativus", "assay": "Inhibition of fatty acid synthesis in Cucumis sativus (cucumber) using [14C]malonate assessed as [14C]-labeled 22C fatty acid level at 300 uM after 3 hr by liquid scintillation counting (reference value: 42.5 +/- 0.6%)", "type": "functional", "set-up": "scale not given: the % may be the effect or the level left"}, "[9]": {"system": "Hordeum vulgare", "assay": "Inhibition of fatty acid synthesis in Hordeum vulgare (barley) using [14C]malonate assessed as [14C]-labeled 20C fatty acid level at 300 uM after 3 hr by liquid scintillation counting (reference value: 6.5 +/- 3.1 %)", "type": "functional", "set-up": "scale not given: the % may be the effect or the level left"}, "[10]": {"system": "Hordeum vulgare", "assay": "Inhibition of fatty acid synthesis in Hordeum vulgare (barley) using [14C]acetate assessed as reduction in [14C]-labeled 20C fatty acid level at 300 uM after 3 hr by liquid scintillation counting", "type": "functional, organism-based"}, "[11]": {"system": "Hordeum vulgare", "assay": "Inhibition of fatty acid synthesis in Hordeum vulgare (barley) using [14C]malonate assessed as [14C]-labeled 16C fatty acid level at 300 uM after 3 hr by liquid scintillation counting (reference value: 8.1 %)", "type": "functional", "set-up": "scale not given: the % may be the effect or the level left"}, "[12]": {"system": "Cucumis sativus", "assay": "Inhibition of fatty acid synthesis in Cucumis sativus (cucumber) using [14C]malonate assessed as [14C]-labeled 18C fatty acid level at 300 uM after 3 hr by liquid scintillation counting (reference value: 14.3 +/- 2%)", "type": "functional", "set-up": "scale not given: the % may be the effect or the level left"}, "[13]": {"system": "Cucumis sativus", "assay": "Inhibition of fatty acid synthesis in Cucumis sativus (cucumber) using [14C]malonate assessed as [14C]-labeled 24C fatty acid level at 300 uM after 3 hr by liquid scintillation counting (reference value: 26.4 +/- 5.5%)", "type": "functional", "set-up": "scale not given: the % may be the effect or the level left"}, "[14]": {"system": "Hordeum vulgare", "assay": "Inhibition of fatty acid synthesis in Hordeum vulgare (barley) using [14C]malonate assessed as [14C]-labeled 18C fatty acid level at 300 uM after 3 hr by liquid scintillation counting (reference value: 12.5 +/- 3.9 %)", "type": "functional", "set-up": "scale not given: the % may be the effect or the level left"}, "[15]": {"system": "Cucumis sativus", "assay": "Inhibition of fatty acid synthesis in Cucumis sativus (cucumber) using [14C]acetate assessed as reduction in [14C]-labeled 20C fatty acid level at 300 uM after 3 hr by liquid scintillation counting relative to control", "type": "functional, organism-based"}, "[16]": {"system": "Hordeum vulgare", "assay": "Inhibition of fatty acid synthesis in Hordeum vulgare (barley) using [14C]acetate assessed as [14C]-labeled 18C fatty acid level at 300 uM after 3 hr by liquid scintillation counting (reference value: 57 +/- 0.9%)", "type": "functional", "set-up": "scale not given: the % may be the effect or the level left"}, "[17]": {"system": "Cucumis sativus", "assay": "as §1, with “of [14C]malonate” for “of [14C]acetate”, “value: 16.3” for “value: 4.4”, “+/- 1.1” for “+/- 1”", "type": "functional"}, "[18]": {"system": "Cucumis sativus", "assay": "Inhibition of fatty acid synthesis in Cucumis sativus (cucumber) using [14C]malonate assessed as [14C]-labeled 16C fatty acid level at 300 uM after 3 hr by liquid scintillation counting (reference value: 5.1 +/- 0.9%)", "type": "functional", "set-up": "scale not given: the % may be the effect or the level left"}, "[19]": {"system": "Hordeum vulgare", "assay": "Inhibition of fatty acid synthesis in Hordeum vulgare (barley) assessed as inhibition of [14C]malonate incoporation in total fatty acids at 300 uM measured as total disintegration per g of fresh weight after 3 hr by liquid scintillation counting (reference value: 9.4 +/- 2.5 dpm x 10^6 g'1 fresh wt)", "type": "functional"}, "[20]": {"system": "Hordeum vulgare", "assay": "Inhibition of fatty acid synthesis in Hordeum vulgare (barley) using [14C]malonate assessed as [14C]-labeled 24C fatty acid level at 300 uM after 3 hr by liquid scintillation counting (reference value: 16.2 +/- 1.1 %)", "type": "functional", "set-up": "scale not given: the % may be the effect or the level left"}, "[21]": {"system": "Cucumis sativus", "assay": "Inhibition of fatty acid synthesis in Cucumis sativus (cucumber) using [14C]acetate assessed as [14C]-labeled 18C fatty acid level at 300 uM after 3 hr by liquid scintillation counting (reference value: 33.5 +/- 1.5%)", "type": "functional", "set-up": "scale not given: the % may be the effect or the level left"}, "[22]": {"system": "Hordeum vulgare", "assay": "Inhibition of fatty acid synthesis in Hordeum vulgare (barley) using [14C]acetate assessed as reduction in [14C]-labeled 22C fatty acid level at 300 uM after 3 hr by liquid scintillation counting", "type": "functional, organism-based"}}, "note": "Activity calls are given as the source filed them. No cut-off for these calls is given here.", "data": [{"smiles": "COCCN(C(=O)CCl)c1c(C)cccc1C", "note": "[DIMETHACHLOR]", "values": [{"measurement": "Activity", "setting": "[1]", "value": 36.2, "unit": "%"}, {"measurement": "Activity", "setting": "[2]", "value": 18.1, "unit": "%"}, {"measurement": "Activity", "setting": "[3]", "value": 2.9, "unit": "×10⁶ dpm"}, {"measurement": "inhibition", "setting": "[4]", "value": "Active"}, {"measurement": "Activity", "setting": "[5]", "value": 11.2, "unit": "%"}, {"measurement": "Activity", "setting": "[6]", "value": 5.9, "unit": "×10⁶ dpm"}, {"measurement": "Activity", "setting": "[7]", "value": 36.1, "unit": "%"}, {"measurement": "Activity", "setting": "[8]", "value": 12.5, "unit": "%"}, {"measurement": "Activity", "setting": "[9]", "value": 8.5, "unit": "%"}, {"measurement": "inhibition", "setting": "[10]", "value": "Active"}, {"measurement": "Activity", "setting": "[11]", "value": 14, "unit": "%"}, {"measurement": "Activity", "setting": "[12]", "value": 46.8, "unit": "%"}, {"measurement": "Activity", "setting": "[13]", "value": 9.3, "unit": "%"}, {"measurement": "Activity", "setting": "[14]", "value": 7.3, "unit": "%"}, {"measurement": "inhibition", "setting": "[15]", "value": "Active"}, {"measurement": "Activity", "setting": "[16]", "value": 63.9, "unit": "%"}, {"measurement": "Activity", "setting": "[17]", "value": 9.4, "unit": "×10⁶ dpm"}, {"measurement": "Activity", "setting": "[18]", "value": 20.4, "unit": "%"}, {"measurement": "Activity", "setting": "[19]", "value": 6.8, "unit": "×10⁶ dpm"}, {"measurement": "Activity", "setting": "[20]", "value": 5.8, "unit": "%"}, {"measurement": "Activity", "setting": "[21]", "value": 63.9, "unit": "%"}, {"measurement": "inhibition", "setting": "[22]", "value": "Active"}]}]}
